Values of other authors, collected in patent publication US20110294894A1, “Pharmaceutical Composition for the Treatment of Solar Urticaria” (priority 2010, published 2011).

Test system: severe antihistamine-resistant solar urticaria
Conditions: single case, Güzelbey et al., 2008

omalizumab
effectiveness in solar urticaria: effective
